One experiment deals with GCN2 kinase (Homo sapiens (Human), UniProt Q9P2K8). The experiment can be described thus: Biochemical assay for GCN2 (TR-FRET kinase activity assay). Particulars: 1 mM ATP, 3-hour incubation. How it is done:
Activity of GCN2 kinase was determined using a TR-FRET kinase activity assay (e.g. Riddle et al. Analytical Biochemistry (2006) 356(1) 108-116). Assays were conducted in 384-well plates (13 μL assay volume) using 2 nM GCN2 (Carna Biosciences), 130 nM GFP-EIf2α (Invitrogen), 0.2 mg/mL E. coli tRNA (sigma) and 1 mM ATP in kinase buffer (Invitrogen). Inhibition of GCN2 was measured by adding serial diluted test compound (final assay concentration of 0.5% DMSO) followed by a 3-hour incubation. Tb-peIF2α (pSer52) antibody (Invitrogen) (2 nM final assay concentration) in kinase buffer containing ETDA (final assay concentration of 20 mM) was added. After a 60 min incubation at room temperature, TR-FRET was monitored using an excitation wavelength of 340 nm and emission wavelengths of 490 nm and 520 nm. The emission ratio (520/490) at each compound concentration of was converted to percent inhibition using controls (i.e. reaction with no test compound and reaction with a known inhibitor) and IC50 values were calculated by fitting a four-parameter sigmoidal curve to the data using Prism (GraphPad software).
On the technique in general: Time-resolved FRET reads energy transfer from a long-lived donor to a nearby acceptor.

For a further experiment, the target named is PERK kinase (Homo sapiens (Human), UniProt Q9NZJ5). The experiment can be described thus: Biochemical assay for PERK (coupled pyruvate kinase/lactate dehydrogenase assay). Particulars: 1 mM ATP, rate from 2-3 h time frame. As for the experimental part: Activity of PERK kinase was determined spectroscopically using a coupled pyruvate kinase/lactate dehydrogenase assay that continuously monitors the ATP hydrolysis-dependent oxidation of NADH (e.g., Schindler et al. Science (2000) 289: 1938-1942). Assays were conducted in 384-well plates (100 μL final volume) using 10 nM PERK (from Beryllium), 0.25 mg/mL Myelin Basic Protein substrate, 1.5 units pyruvate kinase, 2.1 units lactate dehydrogenase, 1 mM phosphoenol pyruvate, 0.28 mM NADH and 1 mM ATP in assay buffer (100 mM Tris, pH 7.5, 15 mM MgCl2, 0.5 mM DTT, 0.004% (w/v) BSA, and 0.004% Triton X-100). Inhibition of PERK was measured by adding serial diluted test compound (final assay concentration of 1% DMSO). A decrease in absorption at 340 nm was monitored continuously for 6 hours at 30° C. on a multi-mode microplate reader (BioTek). The reaction rate was calculated using the 2-3 h time frame. The reaction rate at each concentration of compound was converted to percent inhibition using controls (i.e. reaction with no test compound and reaction with a known inhibitor) and IC50 values were calculated using software routines in Prism (GraphPad software).
PERK kinase, sequence (Q9NZJ5 other isoform, or with tags, fused parts or gaps): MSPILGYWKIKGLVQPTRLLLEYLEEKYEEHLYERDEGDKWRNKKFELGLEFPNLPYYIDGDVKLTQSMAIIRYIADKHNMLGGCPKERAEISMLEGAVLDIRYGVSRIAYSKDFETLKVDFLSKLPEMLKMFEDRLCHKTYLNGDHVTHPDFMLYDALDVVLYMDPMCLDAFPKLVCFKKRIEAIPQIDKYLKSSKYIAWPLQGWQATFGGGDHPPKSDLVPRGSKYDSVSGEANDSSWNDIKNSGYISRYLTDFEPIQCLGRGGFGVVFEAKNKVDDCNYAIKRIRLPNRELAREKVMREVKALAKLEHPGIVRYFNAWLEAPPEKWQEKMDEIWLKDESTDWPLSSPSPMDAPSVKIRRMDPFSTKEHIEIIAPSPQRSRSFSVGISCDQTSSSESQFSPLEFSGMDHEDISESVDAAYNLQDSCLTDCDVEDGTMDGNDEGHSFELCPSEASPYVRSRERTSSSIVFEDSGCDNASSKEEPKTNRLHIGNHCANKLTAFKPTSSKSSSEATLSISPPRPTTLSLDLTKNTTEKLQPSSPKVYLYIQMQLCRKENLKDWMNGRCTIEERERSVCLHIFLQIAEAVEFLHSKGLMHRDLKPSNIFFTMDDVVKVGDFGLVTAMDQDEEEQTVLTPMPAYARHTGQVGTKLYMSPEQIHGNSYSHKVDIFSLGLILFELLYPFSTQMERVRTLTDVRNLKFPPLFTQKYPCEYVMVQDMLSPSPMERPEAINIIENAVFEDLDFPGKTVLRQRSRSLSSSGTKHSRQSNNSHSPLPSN

A value given as a limit tells only on which side of the number the result lay.

GCN2 kinase, sequence (Q9P2K8 whole entry): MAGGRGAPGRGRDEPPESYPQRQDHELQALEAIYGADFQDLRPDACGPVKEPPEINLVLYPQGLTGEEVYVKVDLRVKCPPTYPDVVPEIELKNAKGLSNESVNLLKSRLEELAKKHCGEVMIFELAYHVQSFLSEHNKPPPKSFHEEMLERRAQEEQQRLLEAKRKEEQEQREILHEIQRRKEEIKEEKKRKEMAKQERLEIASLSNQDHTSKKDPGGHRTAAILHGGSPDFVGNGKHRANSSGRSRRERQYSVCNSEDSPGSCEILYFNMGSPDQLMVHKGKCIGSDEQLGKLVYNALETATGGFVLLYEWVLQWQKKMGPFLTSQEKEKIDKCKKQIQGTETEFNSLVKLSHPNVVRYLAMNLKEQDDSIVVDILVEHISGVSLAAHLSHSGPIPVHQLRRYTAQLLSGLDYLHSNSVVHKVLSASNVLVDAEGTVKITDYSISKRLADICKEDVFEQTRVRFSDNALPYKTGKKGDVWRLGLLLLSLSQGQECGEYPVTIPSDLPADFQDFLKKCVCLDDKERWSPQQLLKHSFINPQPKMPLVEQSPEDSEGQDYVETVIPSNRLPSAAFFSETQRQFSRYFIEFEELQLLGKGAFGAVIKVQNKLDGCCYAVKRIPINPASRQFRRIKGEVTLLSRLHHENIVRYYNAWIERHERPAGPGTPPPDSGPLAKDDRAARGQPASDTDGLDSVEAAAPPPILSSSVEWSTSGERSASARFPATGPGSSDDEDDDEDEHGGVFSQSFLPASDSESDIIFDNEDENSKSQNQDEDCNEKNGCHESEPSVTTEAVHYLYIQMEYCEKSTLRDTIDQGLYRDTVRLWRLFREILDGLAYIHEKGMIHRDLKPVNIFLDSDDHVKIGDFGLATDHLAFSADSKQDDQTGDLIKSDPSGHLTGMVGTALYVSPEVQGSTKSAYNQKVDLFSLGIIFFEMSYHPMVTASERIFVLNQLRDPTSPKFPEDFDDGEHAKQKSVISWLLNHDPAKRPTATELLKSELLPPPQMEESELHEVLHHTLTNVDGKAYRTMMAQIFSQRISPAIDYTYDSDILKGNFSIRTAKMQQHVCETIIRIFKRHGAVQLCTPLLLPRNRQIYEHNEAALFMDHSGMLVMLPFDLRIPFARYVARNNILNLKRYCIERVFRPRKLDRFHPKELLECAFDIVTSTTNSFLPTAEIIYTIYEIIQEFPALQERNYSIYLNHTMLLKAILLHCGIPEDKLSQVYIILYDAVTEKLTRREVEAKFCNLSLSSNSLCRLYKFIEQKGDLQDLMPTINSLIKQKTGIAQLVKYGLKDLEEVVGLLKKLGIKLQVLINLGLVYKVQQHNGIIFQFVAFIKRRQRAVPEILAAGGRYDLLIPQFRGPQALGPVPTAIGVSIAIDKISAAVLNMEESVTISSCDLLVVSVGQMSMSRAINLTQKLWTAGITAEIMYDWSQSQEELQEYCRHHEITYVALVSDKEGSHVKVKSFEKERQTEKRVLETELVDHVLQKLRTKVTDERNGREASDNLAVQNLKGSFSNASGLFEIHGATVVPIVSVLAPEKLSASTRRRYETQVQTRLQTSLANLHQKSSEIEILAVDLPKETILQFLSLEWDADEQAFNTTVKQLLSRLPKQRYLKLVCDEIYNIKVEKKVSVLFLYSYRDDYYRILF

A word on the IC50: it is the concentration that inhibits the measured activity by half. High values mean weaker potency in that assay, low ones greater potency in that assay. For the compound `CNc1ncc2cc(-c3cc(NS(=O)(=O)c4cccnc4)c(F)cc3C)c(C)nc2n1` [Example 1, N-(2-fluoro-4-methyl-5-(7-methyl-2-(methylamino)pyrido[2,3-d]pyrimidin-6-yl)phenyl)pyridine-3-sulfonamide], the IC50 on GCN2 kinase and against PERK kinase was 1000 to 10000 nM throughout.
For the compound `CNc1cc2nc(C)c(-c3cc(NS(=O)(=O)c4cc(Cl)cnc4OC)c(F)cc3F)cc2cn1` [Example 5, 5-chloro-N-(2,4-difluoro-5-(2-methyl-7-(methylamino)-1,6-naphthyridin-3-yl)phenyl)-2-methoxypyridine-3-sulfonamide], the IC50 on GCN2 kinase fell in the range of 100 to 500 nM; on PERK kinase, 500 to 1000 nM.
Turning to `CNc1cc2nc(C)c(-c3ccc(F)c(NS(=O)(=O)c4cc(Cl)cnc4OC)c3)cc2cn1` [Example 7], the IC50 against GCN2 kinase fell in the range of 500 to 1000 nM; on PERK kinase it was 100 to 500 nM.
For `CNc1ncc2cc(-c3cc(NS(=O)(=O)c4cc(Cl)cnc4OC)c(F)cc3C)c(NC)nc2n1` [Example 10], the IC50 fell in the range of 500 to 1000 nM against GCN2 kinase and 1000 to 10000 nM against PERK kinase.
For `CNc1ncc2cc(-c3cc(NS(=O)(=O)c4cc(Cl)cnc4OC)c(F)cc3F)c(C)nc2n1` [Example 12], the figures for the half-inhibitory concentration (IC50) against GCN2 kinase and against PERK kinase were 500 to 1000 nM and 1000 to 10000 nM, respectively.
The like results for `CNc1ncc2cc(-c3cc(NS(=O)(=O)c4cc(Cl)cnc4OC)c(F)cc3F)c(NC)nc2n1` [Example 13] were, in that order, 500 to 1000 nM and 1000 to 10000 nM.
The like results for `CNc1cc2nc(C)c(-c3cc(NS(=O)(=O)c4cc(Cl)cnc4OC)c(F)cc3Br)cc2cn1` [Example 18] were, in that order, 500 to 1000 nM and 1000 to 10000 nM.
Regarding `CNc1ncc2cc(-c3ccc(F)c(NS(=O)(=O)c4cc(Cl)cnc4OC)c3)c(C)nc2n1` [Example 20], the IC50 against GCN2 kinase and on PERK kinase was 1000 to 10000 nM throughout.
Regarding `CNc1ncc2cc(-c3cc(NS(=O)(=O)c4cc(Cl)cnc4OC)c(C)cc3F)c(C)nc2n1` [Example 21], the 50% inhibitory concentration (IC50) on GCN2 kinase and against PERK kinase was 1000 to 10000 nM throughout.
On to `CNc1ncc2cc(-c3cc(NS(=O)(=O)c4cc(Cl)cnc4OC)ccc3C)c(NC)nc2n1` [Example 24], for which the IC50 at GCN2 kinase and on PERK kinase was 100 to 500 nM each time.
Regarding `COc1ncc(Cl)cc1S(=O)(=O)Nc1ccc(C)c(-c2ccc3cc(N)ncc3c2)c1` [Example 28], the IC50 was 1000 to 10000 nM on GCN2 kinase and 100 to 500 nM against PERK kinase.
`COc1ncc(Cl)cc1S(=O)(=O)Nc1cccc(-c2ccc3cc(N)ncc3c2)c1F` [Example 29]: the IC50 is 100 to 500 nM against GCN2 kinase and no more than 100 nM against PERK kinase.
The matching figures for `CNc1cc2nc(C)c(-c3cc(NS(=O)(=O)c4cc(Cl)cnc4OC)ccc3C)cc2cn1` [Example 32]: no more than 100 nM and no more than 100 nM.
The like results for `CNc1ncc2cc(-c3cc(NS(=O)(=O)c4cc(Cl)cnc4OC)cc(F)c3C)c(NC)nc2n1` [Example 34] were, in that order, no more than 100 nM and 100 to 500 nM.
At GCN2 kinase, `CNc1ncc2cc(-c3cc(F)cc(NS(=O)(=O)c4cc(Cl)cnc4OC)c3)ccc2n1` [Example 37] gave a 50% inhibitory concentration (IC50) of 1000 to 10000 nM.
On to `CNc1ncc2cc(-c3cc(NS(=O)(=O)c4cncc(Cl)c4)c(F)cc3C)c(C)nc2n1` [Example 42], for which the concentration for half-maximal inhibition (IC50) against GCN2 kinase and against PERK kinase was 1000 to 10000 nM in each case.
`CNc1ncc2cc(-c3cccc(NS(=O)(=O)c4cc(Cl)cnc4OC)c3)ccc2n1` [Example 43]: the IC50 against GCN2 kinase and on PERK kinase was 1000 to 10000 nM throughout.
For `CNc1ncc2cc(-c3ccc(F)c(NS(=O)(=O)c4cc(Cl)cnc4OC)c3F)c(C)nc2n1` [Example 46], the IC50 against GCN2 kinase was 100 to 500 nM; on PERK kinase, 1000 to 10000 nM.
`CNc1ncc2cc(-c3cccc(NS(=O)(=O)c4cc(Cl)cnc4OC)c3)c(C)nc2n1` [Example 47]: the results for the IC50 against GCN2 kinase and against PERK kinase were no more than 100 nM and 100 to 500 nM, respectively.
In the case of `CNc1ncc2cc(-c3cccc(NS(=O)(=O)c4cc(Cl)cnc4OC)c3C)ccc2n1` [Example 52], the IC50 against GCN2 kinase and against PERK kinase was 100 to 500 nM in each case.
As for `CNc1ncc2cc(-c3cc(NS(=O)(=O)c4cc(Cl)cnc4OC)ccc3F)ccc2n1` [Example 54], the IC50 against GCN2 kinase was 500 to 1000 nM; at PERK kinase, 100 to 500 nM.
The like results for `CNc1ncc2cc(-c3cc(NS(=O)(=O)c4cc(Cl)cnc4OC)cc(F)c3F)ccc2n1` [Example 55] were, in that order, 500 to 1000 nM and 100 to 500 nM.
For `CNc1cc2ncc(-c3cc(F)cc(NS(=O)(=O)c4cc(Cl)cnc4OC)c3)cc2cn1` [Example 58], the IC50 at GCN2 kinase and against PERK kinase was 1000 to 10000 nM throughout.
On to `CNc1cc2ncc(-c3cc(NS(=O)(=O)c4cc(Cl)cnc4OC)ccc3F)cc2cn1` [Example 60], for which the IC50 against GCN2 kinase was in the range of 100 to 500 nM; at PERK kinase it was 500 to 1000 nM.
As for `CNc1ncc2cc(-c3cc(NS(=O)(=O)c4cc(Cl)cnc4OC)ccc3Cl)ccc2n1` [Example 69], the IC50 against GCN2 kinase is 100 to 500 nM; against PERK kinase it was no more than 100 nM.
As for `CNc1ncc2cc(-c3cccc(NS(=O)(=O)c4ccc(OC)c(Cl)c4)c3F)ccc2n1` [Example 70], the values for the IC50 against GCN2 kinase and at PERK kinase were 1000 to 10000 nM and 100 to 500 nM, respectively.
For the compound `CNc1ncc2cc(-c3cc(F)cc(NS(=O)(=O)c4cc(Cl)cc(C(C)(C)O)c4Cl)c3)c(NC)nc2n1` [Example 120], the half-inhibitory concentration (IC50) at GCN2 kinase fell in the range of 1000 to 10000 nM.
As to `CNc1nc2nc(NC(C)(C)C)ncc2cc1-c1cccc(NS(=O)(=O)c2cc(Cl)cnc2OC)c1F` [Example 124], the IC50 against GCN2 kinase lay within 100 to 500 nM.
Regarding `CNc1ncc2cc(-c3cccc(NS(=O)(=O)c4cc(OC)c(Cl)cc4OC)c3F)c(NC)nc2n1` [Example 130], at GCN2 kinase, the IC50 lay in the range of 500 to 1000 nM.
Take `CNc1ncc2cc(-c3cccc(NS(=O)(=O)c4cccnc4C(F)(F)F)c3F)c(NC)nc2n1` [Example 131]: the IC50 against GCN2 kinase lay within 100 to 500 nM.
At GCN2 kinase, `CNc1ncc2cc(-c3cccc(NS(=O)(=O)c4cc(C(C)(C)C)ccc4OC)c3F)c(NC)nc2n1` [Example 134] yielded a half-inhibitory concentration (IC50) of 1000 to 10000 nM.
Same read-out and setting: to `CNc1nc2nc(NC3COC3)ncc2cc1-c1cccc(NS(=O)(=O)c2cc(Cl)cnc2OC)c1F` [Example 138] belongs 100 to 500 nM; to `CNc1nc2nc(NCCOC)ncc2cc1-c1cccc(NS(=O)(=O)c2cc(Cl)cnc2OC)c1F` [Example 139], 100 to 500 nM; to `CNc1ncc2cc(-c3cccc(NS(=O)(=O)c4cc(OC)ccc4OC)c3F)c(NC)nc2n1` [Example 140], 100 to 500 nM.
On the same count and under the same terms, to `CNc1ncc2cc(-c3cccc(NS(=O)(=O)c4ccc(C#N)cc4Cl)c3F)c(NC)nc2n1` [Example 141] belongs 1000 to 10000 nM; to `CNc1ncc2cc(-c3cccc(NS(=O)(=O)c4cccc(C(C)=O)c4Cl)c3F)c(NC)nc2n1` [Example 146], 100 to 500 nM; to `CNc1nc2nc(NCC3COC3)ncc2cc1-c1cccc(NS(=O)(=O)c2cc(Cl)cnc2OC)c1F` [Example 149], 500 to 1000 nM.
`CNc1ncc2cc(-c3cccc(NS(=O)(=O)c4cccc(C(=O)OC)c4Cl)c3F)c(NC)nc2n1` [Example 150] yielded a 50% inhibitory concentration (IC50) on GCN2 kinase of 500 to 1000 nM.
Still for that read-out and setting: to `CNc1ncc2cc(-c3cccc(NS(=O)(=O)c4cc(C#N)cnc4OC)c3F)c(NC)nc2n1` [Example 152] belongs 100 to 500 nM.
The same measure, in the same setting: to `CNc1ncc2cc(-c3cccc(NS(=O)(=O)c4cc(Cl)c(C)cc4OC)c3F)c(NC)nc2n1` [Example 157] belongs no more than 100 nM; to `CNc1nc2nc(NC(=O)C3CC3)ncc2cc1-c1cccc(NS(=O)(=O)c2cc(Cl)cnc2OC)c1F` [Example 172], 100 to 500 nM.

These data come from patent US11912668B2, “GCN2 and perk kinase inhibitors and methods of use thereof” (Deciphera Pharmaceuticals, LLC, priority 2020, dated 2024).
